Measurements: patent US7985731B2, “Sugar chain added GLP-1 peptide” (Otsuka Chemical Holdings Co., Ltd., priority 2007, dated 2011)
Ends that are not written are not given here. asialo oligosaccharide = not defined here

What was measured:
[1] = Test Example 1: stability in plasma; assay type: in vitro ADME; details: PBS 70% / plasma 30%, 37° C., sampled 10 to 1440 minutes
Method: 0.1 mg of the peptide prepared in Example 7 or Comparative Example 1 was placed in an Eppendorf tube, and PBS (0.08 ml, 70% of the whole amount) and plasma (0.034 ml, 30% of the whole amount) were sequentially placed therein to bring about the solution amount to 0.114 ml in total. The mixture was allowed to react at 37° C.
The time when plasma was added to the reaction vessel was defined as 0 min. 0.01 ml aliquots were taken from the reaction solution on 10, 30, 60, 180, 360, 720 and 1440 minutes for sampling.
Each sampled reaction solution was mixed with 0.02 ml of 10% trifluoroacetic acid solution prepared in advance in an Eppendorf tube and then centrifuged. A 0.025 ml aliquot of the supernatant of the solution mixture was injected into HPLC to analyze the composition of the reaction solution (reaction monitoring conditions: Shiseido CAPCELL PAK C18, UG120, 250×4.6 mm, developing solvent A: 0.1% aqueous TFA solution, B: 0.1% TFA acetonitrile: water=90:10, gradient A:B=95:5→5:95, 15 min, flow rate: 0.7 ml/min). The results are shown in FIGS. 5 (Example 7) and 6 (Comparative Example 1).

[2] = test system: type-2 diabetes model mice (BKS.Cg-+Lepr db/+Lepr db/Jcl); assay: Test Example 2: effect of lowering blood-sugar levels in db/db mice-1; assay type: in vivo; details: 9 nmol/kg intraperitoneal, 8-week-old male db/db mice, 0-180 minutes
Method: The peptide prepared in each of Examples 1 to 5 or Comparative Example 1 was intraperitoneally administered as the same sample at a dose of […] of body weight (sample concentration: 9 nmol/kg of body weight) to each of three 8-week-old male type-2 diabetes model mice (BKS.Cg−+Lepr^db/Lepr^db/Jcl*). Specifically, the peptide in a PBS solution (9 nmol/10 ml) was intraperitoneally administered at a dose of 10 ml/kg to the BKS.Cg−+Lepr^db/+Lepr^db/Jcl mice (8 week old, male). 0, 30, 60, 90, 120 and 180 minutes after the administration, 0.03 ml of peripheral blood from the retro-orbital venous plexus was collected. The obtained blood was diluted with PBS to 0.3 ml in total, and the solution was centrifuged to separate plasma and hemocyte components. Then, only the plasma component was transferred to an Eppendorf tube separately prepared and refrigerated. A glucose concentration in plasma was measured in accordance with Glucose CII-Test Wako using an absorptiometer. The results were obtained by statistical processing.

[3] = test system: C57BL/6JJcl mice; assay: Test Example 7: Oral Glucose Tolerance Test (OGTT); assay type: in vivo; details: 9 nmol/kg intraperitoneal 30 minutes before glucose 1 mg/g oral
Summary of the method: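 Overnight-fasted mice received oral glucose 1 mg/g 30 minutes after treatment. Orbital blood taken before and at 30, 60, 120 minutes post-glucose. Blood glucose measured by glucometer.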

[4] = test system: db/db (BKS.Cg-+Lepr db/+Lepr db/Jcl) mice; assay: Test Example 8: effect of lowering blood-sugar levels in diabetes model mice; assay type: in vivo; details: 9 nmol/kg intraperitoneal, 10-week-old male mice
Summary of the method: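 Male db/db mice, 10 weeks old, given oligosaccharide-chain-added GLP-1 peptide or unmodified GLP-1 intraperitoneally in PBS (9 nmol/10 ml, 10 ml/kg). Orbital blood sampled before dosing and at 30, 60, 120, 180 and 300 min; blood glucose read with a glucometer.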

Compound	stability in plasma (HPLC analysis of remaining peptide) [1]	effect of lowering blood-sugar levels (glucose concentration in plasma) [2]	effect of suppressing rise in blood-sugar levels in OGTT [3]	effect of lowering blood-sugar levels in db/db mice [4]
19Asn GLP-1-asialo (HAEGTFTSDVSSN(asialo oligosaccharide)LEGQAAKEFIAWLVKGRG; reading uncertain) [Example 7, GLP-1 wherein position 19 is substituted by asialo oligosaccharide chain added Asn]	mostly remained even after 24 hours	–	–	–
CC[C@H](C)[C@H](NC(=O)[C@H](Cc1ccccc1)NC(=O)[C@H](CCC(=O)O)NC(=O)[C@H](CCCCN)NC(=O)[C@H](C)NC(=O)[C@H](C)NC(=O)[C@H](CCC(N)=O)NC(=O)CNC(=O)[C@H](CCC(=O)O)NC(=O)[C@H](CC(C)C)NC(=O)[C@H](Cc1ccc(O)cc1)NC(=O)[C@H](CO)NC(=O)[C@H](CO)NC(=O)[C@@H](NC(=O)[C@H](CC(=O)O)NC(=O)[C@H](CO)NC(=O)[C@@H](NC(=O)[C@H](Cc1ccccc1)NC(=O)[C@@H](NC(=O)CNC(=O)[C@H](CCC(=O)O)NC(=O)[C@H](C)NC(=O)[C@@H](N)Cc1c[nH]cn1)[C@@H](C)O)[C@@H](C)O)C(C)C)C(=O)N[C@@H](C)C(=O)N[C@@H](Cc1c[nH]c2ccccc12)C(=O)N[C@@H](CC(C)C)C(=O)N[C@H](C(=O)N[C@@H](CCCCN)C(=O)NCC(=O)N[C@@H](CCCNC(=N)N)C(=O)NCC(=O)O)C(C)C [Comparative Example 1, GLP-1]	mostly degraded by 180 minutes after the plasma addition	hardly lowered blood-sugar levels	small effect of suppressing rise in blood-sugar levels	almost equal to those in PBS-administered mice
